{"source": "paper PMC10222323", "about": "“Novel Biotinylated Cu(II)-Phenanthroline Complexes: 2D and 3D Cytotoxic Activity and Mechanistic Insight” (Molecules, 2023)", "key": {"[1]": {"system": "HCT-15 (colorectal with low sensitivity for cisplatin) cancer cells", "experiment": "MTT cytotoxicity test, 72 h, HCT-15", "type": "cell-based, human", "settings": "mean ± S.D.", "procedure": "(§1) The in vitro anticancer potential of the newly developed complexes and of the ligands has been tested on six different cancer cell lines including PSN-1 (pancreatic), HCT-15 (colorectal with low sensitivity for cisplatin), 2008 (ovarian), A431 (cervical), MDA-MB-231 (breast), and U1285 (lung) cancer cells. For comparison purposes, cisplatin efficacy was assessed under the same experimental conditions.\n(§2) Tested compounds were dissolved in DMSO and added to the cell-growth medium to a final solvent concentration of 0.5%, which is well reported to not have cytotoxic effects on cell viability. Cisplatin (Sigma Chemical Co., St. Louis, MO, USA) was dissolved in a physiologic solution (0.9% sodium chloride).\n(§3) Human colon (HCT-15), pancreatic (PSN-1), and breast (MDA-MB-231) carcinoma-cell lines were obtained from the American Type Culture Collection (ATCC, Rockville, MD). Human cervical carcinoma (A431) cells were kindly provided by Prof. F. Zunino (Division of Experimental Oncology B, Istituto Nazionale dei Tumori, Milan). Human ovarian carcinoma (2008) cells and their cisplatin-resistant counterpart (C13*) were kindly provided by Prof. G. Marverti (Dipartimento di Scienze Biomediche, Università di Modena University, Italy). Cell lines were cultured in RPMI-1640 or DMEM medium (Euroclone) added with 10% fetal calf serum (Euroclone, Milan, Italy), antibiotics (50 units per mL penicillin, and 50 μg mL^−1 streptomycin), and 2 mM L-glutamine.\n(§4) The growth inhibitory effect toward the tumour cell lines was evaluated by the MTT test as previously described."}, "[2]": {"system": "2008 (ovarian) cancer cells", "experiment": "MTT cytotoxicity test, 72 h, 2008", "type": "cell-based, human", "procedure": "as §1\n(§5) Table 2 reported the IC50 values of the complexes against two types of ovarian cancer cells, one sensitive (2008) and one resistant to cisplatin (C13*). […] The resistance factor (R.F., the ratio among IC50 values obtained in resistant C13*cells and those calculated in the sensitive 2008 ones) calculated for all tested complexes resulted to be ≤2 (R.F. for cisplatin 11.1), strongly confirming the ability of the complexes to bypass cisplatin resistance.\nas §2, §3, §4"}, "[3]": {"system": "A431 (cervical) cancer cells", "experiment": "MTT cytotoxicity test, 72 h, A431", "type": "cell-based, human", "settings": "mean ± S.D.", "procedure": "as §1, §2, §3, §4"}, "[4]": {"system": "MDA-MB-231 (breast) cancer cells", "experiment": "MTT cytotoxicity test, 72 h, MDA-MB-231", "type": "cell-based, human", "settings": "mean ± S.D.", "procedure": "as §1, §2, §3, §4"}, "[5]": {"system": "U1285 (lung) cancer cells", "experiment": "MTT cytotoxicity test, 72 h, U1285", "type": "cell-based, human", "settings": "mean ± S.D., read-out: IC50 U-1285", "procedure": "as §1, §2, §4"}, "[6]": {"system": "C13* ovarian cancer cells (cisplatin-resistant)", "experiment": "MTT cytotoxicity test, 72 h, cisplatin-resistant C13*", "type": "cell-based, human", "settings": "for R.F. (resistance factor): RF = IC50 resistant (C13*)/IC50 parental cells (2008); for IC50: cisplatin-resistant cells, 72 h, MTT test", "procedure": "as §5, §2, §3, §4"}, "[7]": {"system": "noncancerous CHO cells", "experiment": "Cytotoxicity against noncancerous CHO cells", "type": "cell-based", "settings": "for S.I. (selectivity index): average IC50 toward normal cells divided by the average IC50 for the malignant cells; for IC50: noncancerous cells", "source_text": "In order to preliminarily assess the possible toxic effect on noncancerous cells, we also evaluated the cytotoxic potential of the newly developed Cu(II) complexes against noncancerous CHO cells (Table 3). For all tested complexes, calculated IC50 values were higher than those obtained (on average) against tumour cells, thus indicating for this class of metal complexes a slightly preferential cytotoxicity against cancer cells, as attested by the calculated selectivity index values (SI = the quotient of the average IC50 toward normal cells divided by the average IC50 for the malignant cells).\nas §4"}, "[8]": {"system": "DNA", "experiment": "Ethidium bromide displacement assay", "type": "binding", "settings": "EtBr displacement", "procedure": "A number of research studies were performed on the elucidation of the mechanism of action of copper complexes in the past three decades. Despite several different molecular targets having been proposed for copper(II) complexes, DNA still represents one of the most substantiated when considering diamine ligands. On this basis, we thought it of interest to evaluate the ability of tested complexes to interact with DNA, both at molecular and cellular levels. An ethidium bromide (EB) displacement assay was used to understand if the complexes interact with the DNA at a molecular level. […] These values are very much in line with what was previously seen by us and also very close to the reported literature values of 2.60 × 10^7 M(bp^−1) and 3.04 × 10^7 M(bp^−1) for the bis complexes of [Cu(phen)2]^2+ and [Cu(DPQ)2]^2+ reported by Molphy et al.. […] It is largely possible that the presence of the 1,10-phenanthroline scaffold on compounds 3 and 4 is contributing to the increased displacement of the EtBr (probably by intercalation) and leading to a more noticeable decrease in the fluorescence.\nEtBr displacement assays were performed in 10 mM phosphate buffer solution (pH 7.4) as described by Boger et al. The binding values were calculated using the % relative decrease of fluorescence at 50% and the equation below. (1) EEBEtBr/compound50%FI"}, "[9]": {"target": "T1, protein disulphide isomerase (PDI) (Homo sapiens, UniProt P07237)", "T1 construct": "purchased Enzo Life Sciences, Lausen, Switzerland", "T1 sequence (P07237 18-508)": "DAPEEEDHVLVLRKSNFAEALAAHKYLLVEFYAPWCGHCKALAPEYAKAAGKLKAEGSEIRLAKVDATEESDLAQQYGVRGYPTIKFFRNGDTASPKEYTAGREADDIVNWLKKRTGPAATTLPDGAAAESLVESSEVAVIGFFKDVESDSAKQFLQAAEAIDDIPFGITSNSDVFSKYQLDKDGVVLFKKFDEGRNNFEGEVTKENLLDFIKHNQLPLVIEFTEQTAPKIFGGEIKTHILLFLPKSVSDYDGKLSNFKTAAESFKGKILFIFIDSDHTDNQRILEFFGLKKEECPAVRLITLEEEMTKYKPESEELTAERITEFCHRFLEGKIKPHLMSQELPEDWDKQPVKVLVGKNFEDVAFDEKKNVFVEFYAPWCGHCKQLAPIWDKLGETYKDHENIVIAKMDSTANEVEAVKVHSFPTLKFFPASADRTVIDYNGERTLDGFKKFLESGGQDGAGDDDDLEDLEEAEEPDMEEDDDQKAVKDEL", "experiment": "PDI reductase activity (PROTEOSTAT PDI assay kit)", "type": "biochemical", "settings": "25 µM of complex", "procedure": "MDA-MDB-231 cells were exposed for 3 h to 4 μM of tested compounds or 200 µM of the reference drug chlorambucil. […] On the other hand, some reports highlighted protein disulphide isomerase (PDI) as an emerging target for copper complexes.\nThe reductase activity of PDI was assayed by measuring the PDI-catalysed reduction of insulin in the presence of increasing concentrations of the tested compounds by using the PROTEOSTAT PDI assay kit (Enzo Life Sciences, Lausen, Switzerland). Experiments were performed according to the manufacturer’s instructions as previously described. IC50 values were calculated by the 4-PL model.\nFigure 4 Mechanistic studies. (A) Comet assay: MDA-MDB-231 cells were treated for 3 h with 4 μM of tested compounds 2 and 4 or 200 µM of the reference drug chlorambucil. […] The PDI inhibitor Bacitracine (0.5 mM) was used as a positive control."}, "[10]": {"system": "MDA-MB-231 cells", "settings": "24 h, IC50 concentrations", "procedure": "Transmission electron microscopy (TEM) studies were also performed to assess the eventual modification of cellular/subcellular morphological features induced by the tested complexes. Figure 5 reports the TEM images of the breast carcinoma cells MDA-MB-231 treated for 24 h with IC50 concentrations of cisplatin or compounds 2 and 4.\nAbout 10^6 MDA-MB-231 cells were seeded in 24-well plates and, following overnight incubation, were treated with the tested compounds for 24 h. Then, cells were processed as previously described. Pictures were captured with a Hitachi H-600 electron microscope (Hitachi, Tokyo, Japan) operating at 75 kV. All photos were analyzed by using Corel Draw 11.\nFigure 5 TEM analysis of MDA-MB-231 human breast cancer cells: (a,b) control cells; (c–e) cells treated for 24 h with IC50 concentrations of 2; (f–h) cells treated for 24 h with IC50 concentrations of 4."}, "[11]": {"settings": "Table 2, cisplatin-sensitive parental cells"}}, "data": [{"molecule": "O=C(CCCC[C@@H]1SC[C@@H]2NC(=O)N[C@@H]21)NN=C1C(=O)c2ccc[n+]3c2-c2c1ccc[n+]2[Cu-2]3([Cl])[Cl]", "note": "[Complex 2, [Cu(phendione-biotin)Cl2]]", "values": [{"measurement": "IC50", "setting": "[1]", "value": "400 ± 100", "unit": "nM"}, {"measurement": "IC50", "setting": "[2]; Table 1, mean ± S.D.", "value": "1100 ± 300", "unit": "nM"}, {"measurement": "IC50", "setting": "[2]; [11]", "value": "1100 ± 300", "unit": "nM"}, {"measurement": "IC50", "setting": "[3]", "value": "1200 ± 500", "unit": "nM"}, {"measurement": "IC50", "setting": "[4]", "value": "1400 ± 100", "unit": "nM"}, {"measurement": "IC50", "setting": "[5]", "value": "3800 ± 500", "unit": "nM"}, {"measurement": "R.F. (resistance factor)", "setting": "[6]", "value": 1.0}, {"measurement": "IC50", "setting": "[6]", "value": "1100 ± 400", "unit": "nM"}, {"measurement": "S.I. (selectivity index)", "setting": "[7]", "value": 3.7}, {"measurement": "IC50", "setting": "[7]", "value": "5200 ± 300", "unit": "nM"}, {"measurement": "fluorescence quenching (in words)", "setting": "[8]", "value": "very small quenching"}, {"measurement": "PDI inhibition", "setting": "[9]", "value": 45, "unit": "%"}, {"measurement": "cell morphology by TEM", "setting": "[10]", "value": "substantial enhancement of the mitochondrial dimensions (swelling) and a partial disruption of the cristae structures"}]}, {"molecule": "O=C(CCCC[C@@H]1SC[C@@H]2NC(=O)N[C@@H]21)NN=C1C(=O)c2ccc[n+]3c2-c2c1ccc[n+]2[Cu-2]31[n+]2cccc3ccc4ccc[n+]1c4c32.O=[N+]([O-])[O-].O=[N+]([O-])[O-]", "note": "[Complex 4, [Cu(phen)(phendione-biotin)](NO3)2]", "values": [{"measurement": "IC50", "setting": "[1]", "value": "400 ± 20", "unit": "nM"}, {"measurement": "IC50", "setting": "[2]; Table 1, mean ± S.D.", "value": "600 ± 200", "unit": "nM"}, {"measurement": "IC50", "setting": "[2]; [11]", "value": "600 ± 200", "unit": "nM"}, {"measurement": "IC50", "setting": "[3]", "value": "300 ± 30", "unit": "nM"}, {"measurement": "IC50", "setting": "[4]", "value": "600 ± 100", "unit": "nM"}, {"measurement": "IC50", "setting": "[5]", "value": "2000 ± 600", "unit": "nM"}, {"measurement": "R.F. (resistance factor)", "setting": "[6]", "value": 1.9}, {"measurement": "IC50", "setting": "[6]", "value": "1100 ± 300", "unit": "nM"}, {"measurement": "S.I. (selectivity index)", "setting": "[7]", "value": 2.3}, {"measurement": "IC50", "setting": "[7]", "value": "1800 ± 700", "unit": "nM"}, {"measurement": "fluorescence quenching (in words)", "setting": "[8]", "value": "highest quenching values"}, {"measurement": "relative fluorescence decrease", "setting": "[8]", "value": "greater than 50%"}, {"measurement": "binding constant", "setting": "[8]; 10 mM phosphate buffer pH 7.4, from 50% fluorescence decrease", "value": "1.28 × 10^7 M(bp^−1)"}, {"measurement": "PDI inhibition", "setting": "[9]", "value": 15, "unit": "%"}, {"measurement": "cell morphology by TEM", "setting": "[10]", "value": "substantial enhancement of the mitochondrial dimensions (swelling) and a partial disruption of the cristae structures"}]}]}
